Data taken from patent publication US20240262801A1, “COMPOUNDS HAVING 5-(2-FLUORO-6-HYDROXYPHENYL)-1,2,5-THIADIAZOLIDIN-3-ONE 1,1-DIOXIDE AS INHIBITORS OF PROTEIN KINASE PHOSPHATASE ENZYMES” (Ness Therapeutics, Inc., priority 2021, published 2024).
Read-outs that look alike come from different tables or passages of the source.

Legend:
GST-tagged PTPN2 protein = target: T1, GST-tagged PTPN2 protein (Homo sapiens, UniProt P17706); experiment: Primary assay of PTPN2 enzymatic activity inhibition (DiFMUP fluorescence); format: biochemical; conditions: DiFMUP substrate 2 μM, 60 min at RT
T1 construct: purchased ActiveMotif 31592
T1 sequence (P17706 with tags, fused parts or gaps): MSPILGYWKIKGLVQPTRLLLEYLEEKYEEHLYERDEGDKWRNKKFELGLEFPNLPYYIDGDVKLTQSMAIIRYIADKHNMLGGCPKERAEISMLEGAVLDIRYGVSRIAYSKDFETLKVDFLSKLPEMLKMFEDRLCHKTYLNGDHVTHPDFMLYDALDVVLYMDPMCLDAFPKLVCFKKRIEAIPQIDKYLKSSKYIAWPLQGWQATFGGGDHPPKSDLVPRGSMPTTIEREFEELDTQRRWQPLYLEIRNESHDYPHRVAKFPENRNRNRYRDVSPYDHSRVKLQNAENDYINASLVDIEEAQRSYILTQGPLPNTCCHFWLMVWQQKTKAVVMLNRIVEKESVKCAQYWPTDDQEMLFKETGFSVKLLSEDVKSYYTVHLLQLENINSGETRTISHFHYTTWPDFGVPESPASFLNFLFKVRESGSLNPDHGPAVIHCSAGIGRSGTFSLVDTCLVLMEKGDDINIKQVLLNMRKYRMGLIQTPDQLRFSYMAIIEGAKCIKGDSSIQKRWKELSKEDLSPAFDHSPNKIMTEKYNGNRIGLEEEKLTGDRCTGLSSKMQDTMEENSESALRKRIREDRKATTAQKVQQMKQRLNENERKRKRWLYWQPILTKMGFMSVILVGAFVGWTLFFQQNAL
Experimental: Compound activity was determined using GST-tagged PTPN2 protein (Cat #31592, ActiveMotif) (SEQ ID NO: 1) in an in vitro enzymatic reaction. The enzymatic reaction was carried out in assay buffer (50 mM HEPES Na salt pH 7.2-7.4, 2 mM EDTA, 100 mM NaCl, 52 ng/μL BSA, and 6 mM DTT). The compounds were dispensed on a 384 well Diamond Well Plate (Axigen, Cat #P-384-120SQ-C-S) using the Biomek FX liquid handling system at 100× solutions of compounds in DMSO. 2× PTPN2 (final concentration 0.004 ng/μL) was prepared in 1× Assay buffer and 25 μL of mixture per well was added into Reaction plate (Optiplate, black, Perkin Elmer, Cat #6007270). Add 25 μL of 1× buffer to Ctrl- (Substrate w/o PTPN2) wells followed by centrifugation at 100 g for 1 min. Next step the Compounds were added to Reaction plate using Biomek station via following steps: 3 ul of 100× compounds (in DMSO) were mixed with 27 μL of Assay Buffer, then 5 μL of this mixture was added to Reaction plate with 25 μL of PTPN2 Mix. Plates were centrifuged for 1 min at 100 g and incubated for another 10 minutes at room temperature. Finally, 20 μL of 2.5× Substrate (DiFUMP, Invitrogen™ Cat #D6567) mix was added into appropriate wells of Reaction plate to the final concentration of 2 μM, plate was centrifuged at 100 g for 1 min followed by incubation at RT for 60 min, and the Fluorescence Intensity was measured using a Microplate Reader (ClarioStar Plus, excitation 360 nm, emission 450 nm). The % inhibition was then used to calculate the IC50 values. The IC50 values are shown in Table A1, wherein “A” corresponds to IC50<5.0 nm, “B” corresponds to 5.0 nm≤IC50<10.0 nm, “C” corresponds to 10.0 nm≤IC50<50.0 nm, “D” corresponds to 50.0 nm≤IC50<100.0 nm, and “E” corresponds to 100.0 nm≤IC50<500.0 nm, and “F” corresponds to 500.0 nm≤IC50.

[1] = tested on: B16F10 mouse melanoma cells; experiment: Tumor cells B16F10 cellular growth IFNγ-induced inhibition assay (CellTiter-Glo); format: cell-based; conditions: for IC50: B16-F10, 72 h, 3 days incubation; for inhibition at 100 µM: B16-F10, B16F10, 100 μM compound
Experimental: B16F10 mouse melanoma cells (ATCC Cat #CRL-6475) were seeded at a density of 500 cells per well in a 384-well clear bottom plate (Corning Cat #3712, Corning, N.Y.) in 40 μL total volume of DMEM+10% FBS (PanEco Cat #C420, Russia and Sigma Cat #F4135, St. Louis, Mo.). Cells were allowed to adhere overnight at 37° C., 5% CO2. On the following day, 250× solutions of compounds in DMSO (Sigma Cat #D2650) were prepared into […] plate (Diamond Well Plate, Axigen, Cat #P-384-120SQ-C-S) (final concentration of 1×) and DMSO only controls were included. Dilution Plate (Diamond Well Plate (Axigen, Cat #P-384-120SQ-C-S) was prepared by adding 49 μL of culture medium per well: half of the plate with culture medium only, half with culture medium+IFNγ (5 ng/ml). A 1 μL aliquot of 250× compounds ([…] plate) was added to 49 μL of culture medium (Dilution plate), then a 10 μL aliqut of the mixture was transferred to Reaction plate with 40 μL of cells followed by centrifugation at 240 g for 1 min. After 3 days of incubation, 10 μL of CellTiter-Glo (Promega) was added to the cells, plates were centrifuged at 240 g for 1 min, and luminescence signal was measured. For each compound, the percent growth inhibition at every compound dose level was calculated relative to the “DMSO/with IFNγ” control and used to determine the IC50.

[2] = B16F10, + IFNγ, read-out: IC50 + IFNγ
[3] = B16F10, no IFNγ, read-out: IC50 no IFNγ
[4] = + IFNγ, read-out: % Growth Inhibition at 100 μM + IFNγ
[5] = no IFNγ, read-out: % Growth Inhibition at 100 μM no IFNγ

IC50 (GST-tagged PTPN2 protein) | IC50 [1, 2] | IC50 [1, 3] | Structure (SMILES) | inhibition at 100 µM [1, 4] | inhibition at 100 µM [1, 5]
0.05 to 0.1 µM | ≥ 100 µM | ≥ 100 µM | Cc1c(S(=O)(=O)Nc2cc(O)c(N3CC(=O)NS3(=O)=O)c(F)c2)cnn1C(F)F [Example 27, 1-(difluoromethyl)-N-[4-(1,1-dioxido-4-oxo-1,2,5-thiadiazolidin-2-yl)-3-fluoro-5-hydroxyphenyl]-5-methyl-1H-pyrazole-4-sulfonamide] | 10 to 50% | 10 to 50%
0.01 to 0.05 µM | 10 to 50 µM | ≥ 100 µM | Cc1cccc(S(=O)(=O)Nc2cc(O)c(N3CC(=O)NS3(=O)=O)c(F)c2)c1 [Example 22, N-[4-(1,1-dioxido-4-oxo-1,2,5-thiadiazolidin-2-yl)-3-fluoro-5-hydroxyphenyl]-3-methylbenzenesulfonamide] | 50 to 75% | 10 to 50%
0.01 to 0.05 µM | 50 to 100 µM | ≥ 100 µM | Cc1ccccc1NC(=O)Nc1cc(O)c(N2CC(=O)NS2(=O)=O)c(F)c1 [Example 39, 1-[4-(1,1-dioxido-4-oxo-1,2,5-thiadiazolidin-2-yl)-3-fluoro-5-hydroxyphenyl]-3-(2-methylphenyl)urea] | 50 to 75% | 10 to 50%
0.01 to 0.05 µM | 10 to 50 µM | ≥ 100 µM | O=C1CN(c2c(O)cc(NC(=O)NC3CCNCC3)cc2F)S(=O)(=O)N1 [Example 99, 1-[3-fluoro-5-hydroxy-4-(1,1,4-trioxo-1,2,5-thiadiazolidin-2-yl)phenyl]-3-(4-piperidyl)urea] | 50 to 75% | 10 to 50%
0.1 to 0.5 µM | ≥ 100 µM | ≥ 100 µM | COc1cccc(-c2cc(O)c(N3CC(=O)NS3(=O)=O)c(F)c2)c1 [Example 1, 5-(3-fluoro-5-hydroxy-3′-methoxybiphenyl-4-yl)-1,2,5-thiadiazolidin-3-one 1,1-dioxide] | 10 to 50% | 10 to 50%
0.1 to 0.5 µM | 50 to 100 µM | ≥ 100 µM | O=C1CN(c2c(O)cc(-c3ccccc3F)cc2F)S(=O)(=O)N1 [Example 7, 5-(2′,3-difluoro-5-hydroxybiphenyl-4-yl)-1,2,5-thiadiazolidin-3-one 1,1-dioxide] | 50 to 75% | 10 to 50%
0.01 to 0.05 µM | 10 to 50 µM | ≥ 100 µM | COc1ccc(S(=O)(=O)Nc2cc(O)c(N3CC(=O)NS3(=O)=O)c(F)c2)cc1OC [Example 26, N-[4-(1,1-dioxido-4-oxo-1,2,5-thiadiazolidin-2-yl)-3-fluoro-5-hydroxyphenyl]-3,4-dimethoxybenzenesulfonamide] | 50 to 75% | 10 to 50%
< 0.005 µM | 5 to 10 µM | ≥ 100 µM | O=C1CN(c2c(O)cc(NC(=O)N[C@H]3CC[C@H](CO)CC3)cc2F)S(=O)(=O)N1 [Example 107, 1-[3-fluoro-5-hydroxy-4-(1,1,4-trioxo-1,2,5-thiadiazolidin-2-yl)phenyl]-3-[4-(hydroxymethyl)-cyclohexyl]urea] | 50 to 75% | 10 to 50%
0.01 to 0.05 µM | 50 to 100 µM | ≥ 100 µM | Cc1ccc(S(=O)(=O)Nc2cc(O)c(N3CC(=O)NS3(=O)=O)c(F)c2)cc1 [Example 18, N-[4-(1,1-dioxido-4-oxo-1,2,5-thiadiazolidin-2-yl)-3-fluoro-5-hydroxyphenyl]-4-methylbenzenesulfonamide] | 50 to 75% | 10 to 50%
0.005 to 0.01 µM | 10 to 50 µM | ≥ 100 µM | O=C1CN(c2c(O)cc(NC(=O)Nc3ccccc3)cc2F)S(=O)(=O)N1 [Example 35, 1-[4-(1,1-dioxido-4-oxo-1,2,5-thiadiazolidin-2-yl)-3-fluoro-5-hydroxyphenyl]-3-phenylurea] | 75 to 100% | 10 to 50%
0.005 to 0.01 µM | ≥ 100 µM | ≥ 100 µM | CC(C)CCN1CC(CNC(=O)Nc2cc(O)c(N3CC(=O)NS3(=O)=O)c(F)c2)C2(CCCCC2)C1 (stereo not drawn) [Example 102, 1-[3-fluoro-5-hydroxy-4-(1,1,4-trioxo-1,2,5-thiadiazolidin-2-yl)phenyl]-3-[(2-isopentyl-2-azaspiro[4.5]decan-4-yl)methyl]urea] | 10 to 50% | 10 to 50%
< 0.005 µM | 10 to 50 µM | ≥ 100 µM | O=C1CN(c2c(O)cc(NC(=O)N[C@H](CO)Cc3ccccc3)cc2F)S(=O)(=O)N1 [Example 109, 1-[(1S)-1-benzyl-2-hydroxy-ethyl]-3-[3-fluoro-5-hydroxy-4-(1,1,4-trioxo-1,2,5-thiadiazolidin-2-yl)phenyl]urea] | 50 to 75% | 10 to 50%
< 0.005 µM | 10 to 50 µM | ≥ 100 µM | COc1ccc(NC(=O)Nc2cc(O)c(N3CC(=O)NS3(=O)=O)c(F)c2)cc1OC [Example 59, 1-(3,4-dimethoxyphenyl)-3-[4-(1,1-dioxido-4-oxo-1,2,5-thiadiazolidin-2-yl)-3-fluoro-5-hydroxyphenyl]urea] | 50 to 75% | 10 to 50%
< 0.005 µM | 10 to 50 µM | ≥ 100 µM | O=C1CN(c2c(O)cc(NC(=O)NC34CC(CO)(C3)C4)cc2F)S(=O)(=O)N1 [Example 111, 1-[3-fluoro-5-hydroxy-4-(1,1,4-trioxo-1,2,5-thiadiazolidin-2-yl)phenyl]-3-[3-(hydroxymethyl)-1-bicyclo[1.1.1]pentanyl]urea] | 75 to 100% | 10 to 50%
0.005 to 0.01 µM | ≥ 100 µM | ≥ 100 µM | O=C1CN(c2c(O)cc(NC(=O)Nc3ccc(F)cc3)cc2F)S(=O)(=O)N1 [Example 53, 1-[4-(1,1-dioxido-4-oxo-1,2,5-thiadiazolidin-2-yl)-3-fluoro-5-hydroxyphenyl]-3-(4-fluorophenyl)urea] | 10 to 50% | 10 to 50%
< 0.005 µM | 5 to 10 µM | ≥ 100 µM | O=C1CN(c2c(O)cc(NC(=O)NC3CCCNC3)cc2F)S(=O)(=O)N1 (stereo not drawn) [Example 104, 1-[3-fluoro-5-hydroxy-4-(1,1,4-trioxo-1,2,5-thiadiazolidin-2-yl)phenyl]-3-(3-piperidyl)urea] | 75 to 100% | 10 to 50%
0.005 to 0.01 µM | ≥ 100 µM | ≥ 100 µM | O=C1CN(c2c(O)cc(NC(=O)Nc3ccccc3C(F)(F)F)cc2F)S(=O)(=O)N1 [Example 55, 1-[4-(1,1-dioxido-4-oxo-1,2,5-thiadiazolidin-2-yl)-3-fluoro-5-hydroxyphenyl]-3-[2-(trifluoromethyl)phenyl]urea] | 10 to 50% | 10 to 50%
0.1 to 0.5 µM | ≥ 100 µM | ≥ 100 µM | O=C1CN(c2c(O)cc(NC(=O)c3ccccc3)cc2F)S(=O)(=O)N1 [Example 13, N-[4-(1,1-dioxido-4-oxo-1,2,5-thiadiazolidin-2-yl)-3-fluoro-5-hydroxyphenyl]benzamide] | 10 to 50% | 10 to 50%
